# Laboratory results: patent US20120315654A1, “COMPOSITIONS AND METHODS FOR DETECTING CARDIOTOXICITY” (DUKE UNIVERSITY, priority 2011, published 2012)
# Experiments:
# RNCM [1] = assay: Caspase 3/7 apoptosis assay in RNCM; assay type: cell-based, rat; details: 100 nmol/L DOX, up to 48 hrs
# Experimental: (§1) Apoptosis was measured using PROMEGA's CASPASE-GLO 3/7 ASSAY SYSTEM (PROMEGA). Briefly, attached cells in a single 24-well plate were washed 3 times with ice-cold PBS and resuspended in 500 μl of 1% TRITON-X100; 10% glycerol; 2 mmol/L EDTA; 137 mmol/L NaCl; and 20 mmol/L Tris, pH 8.0. A mixture of 25 μL of lysate and 25 μL of caspase 3/7-assay reagent was prepared, and sequential luminescent readings were taken every 15 min for 4 hrs. Peak signal readings were normalized to protein content and plotted.
# HL-1 cells [2] = assay: Caspase 3/7 apoptosis assay in HL-1 cells; assay type: cell-based, murine; details: HL-1, 100 nmol/L DOX, up to 48 hrs
# Experimental: as §1
# RNCM [3] = assay: LDH release cytotoxicity assay in RNCM; assay type: cell-based, rat
# Experimental: (§2) Toxicity was assessed by quantifying the amount of lactate dehydrogenase (LDH) present in the culture media using PROMEGA's CYTOTOX96 NON-RADIOACTIVE ASSAY (PROMEGA, Madison, Wis.). Maximum cytotoxicity was determined by measuring the amount of LDH released in cells incubated with the kit's lysis buffer. The percentage of LDH released after DOX treatment was compared with that of controls.
# HL-1 cells [4] = assay: LDH release cytotoxicity assay in HL-1 cells; assay type: cell-based, murine
# Experimental: as §2
# cell-surface CrT protein = assay: Cell-surface CrT protein by biotin labeling, avidin isolation and Western blot (4B9); assay type: cell-based, human; details: HL-1 cultures, 100 nmol/L DOX
# Experimental: HL-1 cells expressing CrT protein were lysed in an ice-cold solution of 150 mmol/L NaCl; 1% Triton X-100; and 50 mmol/L Tris-HCl, pH 7.4, supplemented with protease (COMPLETE MINI protease inhibitors, ROCHE, Indianapolis, Ind.) and phosphatase inhibitors (5 mmol/L NaF; 1 mmol/L phenylmethylsulphonylfluoride; 2.5 mmol/L Na2P2O7; 50 mmol/L β-glycerol; and 1 mmol/L […], Sigma). Insoluble material was separated by centrifugation at 100,000×g for 30 min at 4° C. Solubilized protein (25 μg per lane) was mixed with Laemmli buffer containing 10% β-mercaptoethanol, separated by SDS-PAGE on a 7% gel for studies of the CrT, and then transferred to nitrocellulose membranes. […] The TATA box-binding protein band was used as a loading control and was detected using a mouse monoclonal antibody (ABCAM, Cambridge, Mass.). […] Protein abundance was quantitated by densitometry using the IMAGEJ application from NIH, and normalized to the signal obtained from CrT protein isolated from cells grown in normal culture media.
# HL-1 cultures were grown in 75 cm^2 plates and transiently transfected as described for human CrT cDNA. […] Cell surface CrT protein fraction (biotinylated CrT) was then analyzed by Western blotting using an anti-CrT antibody as described above.
# [5] = cited from earlier work
# HL-1 cells [6] = assay: Quantification of Cr and high-energy phosphates in HL-1 extracts by LC-MS/MS; details: HL-1, 100 nmol/L DOX, 24 hrs
structure (smiles),measurement,setting,value
"COc1cccc2c1C(=O)c1c(O)c3c(c(O)c1C2=O)C[C@@](O)(C(=O)CO)C[C@@H]3O[C@H]1C[C@H](N)[C@H](O)[C@H](C)O1 [DOX, Doxorubicin]",Apoptosis (caspase 3/7 activation),RNCM [1],No increase
same,Apoptosis (caspase 3/7 activation),HL-1 cells [2],No increase
same,LDH release,"RNCM [3]; 50 nmol/L DOX, through 48 hrs",not significantly elevated
same,Increase in LDH release compared with control,"RNCM [3]; 100 nmol/L DOX, 36 hrs",7%
same,LDH release,"HL-1 cells [4]; HL-1, 50 nmol/L DOX, through 48 hrs",not significantly elevated
same,Increase in LDH release compared with controls,"HL-1 cells [4]; HL-1, 100 nmol/L DOX, 24 hrs",approximately 10%
same,Amount of CrT at the cell surface,cell-surface CrT protein,decreased
same,Average steady-state concentration typically measured in patient plasma,[5],100 nmol/L
same,ADP,HL-1 cells [6],0.50 ± 0.07 μmols/mg prot
same,AMP,HL-1 cells [6],0.26 ± 0.08 μmols/mg prot
same,ATP,HL-1 cells [6],0.60 ± 0.15 μmols/mg prot
same,Cr,HL-1 cells [6],23.01 ± 7.92 μmols/mg prot
same,PCr,HL-1 cells [6],5.94 ± 0.12 μmols/mg prot
